Test results published in PubChem BioAssay AID1259408 (Genetic Toxicology Data Bank (GENE-TOX), 2018).
The source made the active and inactive calls. No rule for the calls is given here.

System: GENE-TOX genotoxicity assays, various organisms and cells
Experiment: GENE-TOX mutagenicity studies
Details: for call: Assay Type: In vivo carcinogenicity studies
[1] = Species/Cell Type: Salmonella typhimurium, Assay Type: Forward and reverse gene mutation, host-mediated assay, Assay Code: HMA+, Evaluation Type: Evaluation A (Pre-1980)
[2] = Species/Cell Type: Nonhuman, Assay Type: Sister-chromatid exchange (SCE) in vivo, Assay Code: SC3+, Evaluation Type: Evaluation B (Post-1980)
[3] = Species/Cell Type: Salmonella typhimurium (one or more of the five standard strains: TA98, TA100, TA1535, TA1537, and TA1538), Assay Type: Histidine reverse gene mutation, Ames assay, Assay Code: SAL+*, Activation: With metabolic activation, Evaluation Type: Evaluation A (Pre-1980)
[4] = Species/Cell Type: Bacillus subtilis (H17 vs M45), Assay Type: Rec-assay, spot test, DNA effects (bacterial DNA repair), Assay Code: REW-, Evaluation Type: Evaluation A (Pre-1980)
[5] = Species/Cell Type: Vicia faba, Assay Type: Chromosome aberrations, Assay Code: VIC+, Evaluation Type: Evaluation A (Pre-1980)
[6] = Species/Cell Type: Salmonella typhimurium (one or more of the five standard strains: TA98, TA100, TA1535, TA1537, and TA1538), Assay Type: Histidine reverse gene mutation, Ames assay, Assay Code: SALT, Evaluation Type: Evaluation A (Pre-1980)
[7] = Species/Cell Type: Salmonella typhimurium (one or more of the five standard strains: TA98, TA100, TA1535, TA1537, and TA1538), Assay Type: Histidine reverse gene mutation, Ames assay, Assay Code: SAL+, Evaluation Type: Evaluation A (Pre-1980)
[8] = Species/Cell Type: Nonhuman, Assay Code: CCG+, Evaluation Type: Evaluation A (Pre-1980)
[9] = Species/Cell Type: Escherichia coli polA (W3110 vs P3478), Assay Type: Rec-assay, DNA effects (bacterial DNA repair), Assay Code: RE2-, Evaluation Type: Evaluation A (Pre-1980)
[10] = Species/Cell Type: Escherichia coli polA (W3119 vs P3478), Assay Type: Rec-assay, DNA effects (bacterial DNA repair), Assay Code: RE1-, Evaluation Type: Evaluation A (Pre-1980)
[11] = Species/Cell Type: Saccharomyces cerevisiae, Assay Type: Mitotic recombination or gene conversion, Assay Code: YEH-, Evaluation Type: Evaluation A (Pre-1980)

## COC(=O)Nc1nc2ccc(C(=O)c3ccccc3)cc2[nH]1
Species/Cell Type: Salmonella typhimurium, Assay Type: Forward and reverse gene mutation, body fluid assay, Assay Code: BFU+, Evaluation Type: Evaluation A (Pre-1980)
  mutagenic call: active; positive
[1]
  mutagenic call: active; positive

## Cc1csc(NNC=O)n1
Species/Cell Type: Escherichia coli WP2, Assay Type: Tryptophan reverse gene mutation, Assay Code: WP2-, Evaluation Type: Evaluation A (Pre-1980)
  mutagenic call: inactive; negative
Species/Cell Type: Escherichia coli WP2 UVRA, Assay Type: Tryptophan reverse gene mutation, Assay Code: WPU-, Evaluation Type: Evaluation A (Pre-1980)
  mutagenic call: inactive; negative

## COC(=O)C1=CCCN(C)C1
Species/Cell Type: Mammalian polychromatic erythrocytes, Assay Type: Micronucleus test, chromosome aberrations, Assay Code: MNT+U, Dose Response: Unconfirmed positive response, Evaluation Type: Evaluation B (Post-1980)
  mutagenic call: active; positive
[2]
  mutagenic call: active; positive

## ClCCNCCCNc1c2ccccc2nc2ccccc12
Species/Cell Type: Chinese hamster ovary (CHO) cells, Assay Type: Forward gene mutation at the HPRT locus, Assay Code: CHO+, Evaluation Type: Evaluation B (Post-1980)
  mutagenic call: active; positive

## Cc1cc2c(c3ccc4ccccc4c13)CCCC2=O
[3]
  mutagenic call: active; positive

## CN(C)c1ccc(N=Nc2ccc3nc4ccc(N)cc4[n+](-c4ccccc4)c3c2)cc1
[4]
  mutagenic call: inactive; negative

## NNc1nnc(NN)c2ccccc12
[2]
  mutagenic call: active; positive

## COC1=C(N)C(=O)c2nc(-c3nc(C(=O)O)c(C)c(-c4ccc(OC)c(OC)c4O)c3N)ccc2C1=O
Species/Cell Type: Fischer rat embryo (RLV/1706) cells, Assay Type: Cell transformation, viral enhanced, Assay Code: CTR-, Evaluation Type: Evaluation A (Pre-1980)
  mutagenic call: inactive; negative
Species/Cell Type: Human cell culture, Assay Type: Chromosome aberrations in vitro, Assay Code: CYZ+, Evaluation Type: Evaluation A (Pre-1980)
  mutagenic call: active; positive
Species/Cell Type: Human diploid fibroblasts, Assay Type: Unscheduled DNA synthesis (UDS) in vitro, DNA effects, Assay Code: UDH+, Evaluation Type: Evaluation A (Pre-1980)
  mutagenic call: active; positive
Species/Cell Type: Mammalian oocytes or early embryo, Assay Type: Chromosome aberrations in vivo, Assay Code: CYO+, Evaluation Type: Evaluation A (Pre-1980)
  mutagenic call: active; positive
Species/Cell Type: Nonhuman, Assay Type: Sister-chromatid exchange (SCE) in vivo, Assay Code: SC3+, Evaluation Type: Evaluation A (Pre-1980)
  mutagenic call: active; positive
[5]
  mutagenic call: active; positive

## O=C1NC(=O)C(c2ccccc2)(c2ccccc2)N1
Species/Cell Type: Human lymphocytes, Assay Type: Sister-chromatid exchange (SCE) in vivo, Assay Code: SCY+, Evaluation Type: Evaluation B (Post-1980)
  mutagenic call: active; positive
Species/Cell Type: Human, Sex: Male, Assay Type: Sperm morphology, Assay Code: SPHT, Evaluation Type: Evaluation A (Pre-1980)
  mutagenic call: no conclusion
Species/Cell Type: Mammalian polychromatic erythrocytes, Assay Type: Micronucleus test, chromosome aberrations, Assay Code: MNT+, Evaluation Type: Evaluation B (Post-1980)
  mutagenic call: active; positive
Species/Cell Type: Mammalian polychromatic erythrocytes, Assay Type: Micronucleus test, chromosome aberrations, Assay Code: MNTT, Evaluation Type: Evaluation B (Post-1980)
  mutagenic call: no conclusion
[2]
  mutagenic call: active; positive

## Cc1cc2c(c3ccc4ccccc4c13)CCCC2C (stereo unspecified)
[6]
  mutagenic call: no conclusion

## ONc1ccc(-c2ccccc2)cc1
[7]
  mutagenic call: active; positive

## [Cl][Al]([Cl])[Cl]
[4]
  mutagenic call: inactive; negative
Species/Cell Type: Nonhuman bone marrow, Assay Type: Chromosome aberrations, in vivo, Assay Code: CY#+, Evaluation Type: Evaluation A (Pre-1980)
  mutagenic call: active; positive
Species/Cell Type: Syrian hamster embryo (SA7/SHE) cells, Assay Type: Cell transformation, viral enhanced, Assay Code: CT7-, Evaluation Type: Evaluation A (Pre-1980)
  mutagenic call: inactive; negative

## CCCCN(CCCCO)N=O
Species/Cell Type: Escherichia coli polA (W3119 vs P3478), Assay Type: Rec-assay, DNA effects (bacterial DNA repair), Assay Code: RE1T, Evaluation Type: Evaluation A (Pre-1980)
  mutagenic call: no conclusion
Species/Cell Type: Nonhuman, Assay Type: Chromosome aberrations in vitro, Assay Code: CY&-, Evaluation Type: Evaluation A (Pre-1980)
  mutagenic call: inactive; negative
[8]
  call: active; positive
Species/Cell Type: Nonhuman, Assay Type: Sister-chromatid exchange (SCE) in vitro, Assay Code: SC2+D, Dose Response: With dose response, Evaluation Type: Evaluation B (Post-1980)
  mutagenic call: active; positive
Species/Cell Type: Nonhuman, Assay Type: Sister-chromatid exchange (SCE) in vitro, Assay Code: SC2T, Evaluation Type: Evaluation A (Pre-1980)
  mutagenic call: no conclusion
[7]
  mutagenic call: active; positive

## CN=C1C=CC(=C(c2ccc(N(C)C)cc2)c2ccc(N(C)C)cc2)C=C1
Species/Cell Type: Bacillus subtilis (H17 vs M45), Assay Type: Rec-assay, spot test, DNA effects (bacterial DNA repair), Assay Code: REW+, Evaluation Type: Evaluation A (Pre-1980)
  mutagenic call: active; positive
Species/Cell Type: Bacillus subtilis (H17 vs M45T), Assay Type: Rec-assay, spot test, DNA effects (bacterial DNA repair), Assay Code: REXT, Evaluation Type: Evaluation A (Pre-1980)
  mutagenic call: no conclusion

## Cc1ccc(N)cc1
[9]
  mutagenic call: inactive; negative
[10]
  mutagenic call: inactive; negative
Species/Cell Type: Saccharomyces cerevisiae, Assay Type: Mitotic recombination or gene conversion, Assay Code: YEH+*, Activation: With metabolic activation, Evaluation Type: Evaluation A (Pre-1980)
  mutagenic call: active; positive
[11]
  mutagenic call: inactive; negative

## COCCl
Species/Cell Type: Nonhuman, Assay Code: CCG+L, Evaluation Type: Evaluation A (Pre-1980)
  call: active; positive
Species/Cell Type: Syrian hamster embryo (SA7/SHE) cells, Assay Type: Cell transformation, viral enhanced, Assay Code: CT7+, Evaluation Type: Evaluation A (Pre-1980)
  mutagenic call: active; positive

## COC(=O)[C@@]12Oc3ccc(-c4ccc5c(c4O)C(O)=C4C(=O)C[C@H](C)[C@@H](O)[C@]4(C(=O)OC)O5)c(O)c3C(O)=C1C(=O)C[C@H](C)[C@H]2O
[6]
  mutagenic call: no conclusion

## Nc1ncn[nH]1
Species/Cell Type: Allium cepa, Assay Type: Chromosome aberrations, Assay Code: ALC+, Evaluation Type: Evaluation A (Pre-1980)
  mutagenic call: active; positive
Species/Cell Type: Drosophila melanogaster, Assay Type: Aneuploidy, sex chromosome gain, chromosome aberrations, Assay Code: DAG-F, Evaluation Type: Evaluation A (Pre-1980)
  mutagenic call: inactive; negative
Species/Cell Type: Drosophila melanogaster, Assay Type: Aneuploidy, whole sex chromosome loss, chromosome aberrations, Assay Code: DAC-F, Evaluation Type: Evaluation A (Pre-1980)
  mutagenic call: inactive; negative
Species/Cell Type: Drosophila melanogaster, Assay Type: Sex-linked recessive lethal gene mutation, Assay Code: SRLT, Evaluation Type: Evaluation A (Pre-1980)
  mutagenic call: no conclusion
[9]
  mutagenic call: inactive; negative
[10]
  mutagenic call: inactive; negative
Species/Cell Type: Fischer rat embryo (RLV/1706) cells, Assay Type: Cell transformation, viral enhanced, Assay Code: CTR+, Evaluation Type: Evaluation A (Pre-1980)
  mutagenic call: active; positive
Species/Cell Type: Hordeum vulgare (barley), Assay Type: Chromosome aberrations, Assay Code: HOC+, Evaluation Type: Evaluation A (Pre-1980)
  mutagenic call: active; positive
Species/Cell Type: Human diploid fibroblasts, Assay Type: Unscheduled DNA synthesis (UDS) in vitro, DNA effects, Assay Code: UDH-, Evaluation Type: Evaluation A (Pre-1980)
  mutagenic call: inactive; negative
Species/Cell Type: Mammalian polychromatic erythrocytes, Assay Type: Micronucleus test, chromosome aberrations, Assay Code: MNTT, Evaluation Type: Evaluation A (Pre-1980)
  mutagenic call: no conclusion
Species/Cell Type: Mouse, Sex: Male, Assay Type: Sperm morphology, Assay Code: SPI-, Evaluation Type: Evaluation A (Pre-1980)
  mutagenic call: inactive; negative
Species/Cell Type: Neurospora crassa, Assay Type: Aneuploidy, chromosome aberrations, Assay Code: NEN-, Evaluation Type: Evaluation A (Pre-1980)
  mutagenic call: inactive; negative
[8]
  call: active; positive
Species/Cell Type: Nonhuman, Assay Type: Sister-chromatid exchange (SCE) in vitro, Assay Code: SC2+D*, Activation: With metabolic activation, Dose Response: With dose response, Evaluation Type: Evaluation B (Post-1980)
  mutagenic call: active; positive
[11]
  mutagenic call: inactive; negative
Species/Cell Type: Salmonella typhimurium (one or more of the five standard strains: TA98, TA100, TA1535, TA1537, and TA1538), Assay Type: Histidine reverse gene mutation, Ames assay, Assay Code: SAL-, Evaluation Type: Evaluation A (Pre-1980)
  mutagenic call: inactive; negative
[1]
  mutagenic call: active; positive
Species/Cell Type: Syrian hamster embryo (SHE) cells, Assay Type: Cell transformation, clonal assay, Assay Code: CTC+, Evaluation Type: Evaluation A (Pre-1980)
  mutagenic call: active; positive
[5]
  mutagenic call: active; positive

## CCCCN(CC(=O)CC)N=O
[3]
  mutagenic call: active; positive
